Data as given in ChEMBL document CHEMBL3856232, “Synthesis and biological evaluation of novel 2-imino-4-thiazolidinone derivatives as potent anti-cancer agents” (Bioorg Med Chem Lett, 2016).
Activity calls are given as the source filed them. No cut-off for these calls is given here.

What was measured:
[1] = system: A549; assay: (§1) Cytotoxicity against human A549 cells assessed as reduction in cell viability after 48 hrs by MTT assay; assay type: functional, cell-based
[2] = system: B16-F10; assay: (§2) Cytotoxicity against mouse B16F10 cells assessed as reduction in cell viability after 48 hrs by MTT assay; assay type: functional, cell-based
[3] = Cytotoxicity against CHO cells assessed as reduction in cell viability up to 100 uM after 48 hrs by MTT assay; assay type: toxicity, cell-based, Cricetulus griseus; settings: chinese hamster
[4] = as §2; assay type: functional, cell-based; settings: B16-F10, 48 h
[5] = system: B16-F10; assay: Induction of apoptosis in mouse B16F10 cells assessed as DNA damage at 50 uM after 24 hrs by propidium iodide/Hoechst staining based FACS analysis; assay type: functional, cell-based
[6] = Cell cycle arrest in mouse B16F10 cells assessed as decrease in G0/G1 phase at 50 uM after 24 hrs by propidium iodide staining based FACS analysis; assay type: functional; settings: B16-F10
[7] = Cell cycle arrest in mouse B16F10 cells assessed as accumulation in sub G0/G1 phase at 50 uM after 24 hrs by propidium iodide staining based FACS analysis; assay type: functional; settings: B16-F10
[8] = as §1; assay type: functional, cell-based; settings: A549, 48 h
[9] = Cytotoxicity against human A549 cells assessed as inhibition of cell viability at 4 uM after 48 hrs by MTT assay relative to control; assay type: functional; settings: A549, 48 h
[10] = Cytotoxicity against mouse B16F10 cells assessed as inhibition of cell viability at 4 uM after 48 hrs by MTT assay relative to control; assay type: functional; settings: B16-F10, 48 h
[11] = system: PANC-1; assay: Cytotoxicity against human PANC1 cells assessed as reduction in cell viability up to 100 uM after 48 hrs by MTT assay; assay type: functional, cell-based
[12] = Cytotoxicity against CHO cells assessed as reduction in cell viability up to 10 uM after 48 hrs by MTT assay; assay type: toxicity, cell-based, Cricetulus griseus; settings: chinese hamster
[13] = Cell cycle arrest in mouse B16F10 cells assessed as accumulation in G2/M phase at 50 uM after 24 hrs by propidium iodide staining based FACS analysis; assay type: functional; settings: B16-F10
[14] = system: B16-F10; assay: Induction of intracellular hydrogen peroxide accumulation in mouse B16F10 cells at 50 uM after 24 hrs by DCF-DA staining based fluorescence microscopic analysis; assay type: functional, cell-based
[15] = system: B16-F10; assay: Induction of intracellular superoxide radical accumulation in mouse B16F10 cells at 50 uM by dihydroethidium staining based fluorescence microscopic analysis; assay type: functional, cell-based
[16] = Cytotoxicity against CHO cells assessed as reduction in cell viability at 50 to 100 uM after 48 hrs by MTT assay; assay type: toxicity, cell-based, Cricetulus griseus; settings: chinese hamster

| SMILES | Activity [1] | Activity [2] | also measured |
| --- | --- | --- | --- |
| O=C(CN1CCCCC1)Nc1ccc(/N=C2\SCC(=O)N2Cc2ccco2)cc1 | Active | Active | – |
| O=C(CN1CCCC1)Nc1ccc(/N=C2\SCC(=O)N2Cc2ccco2)cc1 | Active | Active | – |
| O=C(CN1CCCC1)Nc1ccc(/N=C2\SCC(=O)N2Cc2cccs2)cc1 | – | – | Activity [3]: Non-Toxic; IC50 [4]: 5.4 µM; Activity [5]: Active; Activity [6]: Active; Activity [7]: Active |
| CN(C)CC(=O)Nc1ccc(/N=C2\SCC(=O)N2Cc2cccs2)cc1 | Active | Active | – |
| O=C(CN1CCSCC1)Nc1ccc(/N=C2\SCC(=O)N2Cc2ccco2)cc1 | Active | Active | – |
| O=C(CN1CCN(c2ccc(F)cc2)CC1)Nc1ccc(/N=C2\SCC(=O)N2Cc2cccs2)cc1 | Active | Active | – |
| O=C(CN1CCN(C(=O)c2ccccc2)CC1)Nc1ccc(/N=C2\SCC(=O)N2Cc2cccs2)cc1 | – | – | IC50 [8]: 10 µM |
| O=C(CN1CCSCC1)Nc1ccc(/N=C2\SCC(=O)N2Cc2cccs2)cc1 | – | – | IC50 [8]: 10 µM |
| COc1ccccc1N1CCN(CC(=O)Nc2ccc(/N=C3\SCC(=O)N3Cc3ccco3)cc2)CC1 | Active | Active | – |
| COc1cccc2c1C(=O)c1c(O)c3c(c(O)c1C2=O)C[C@@](O)(C(=O)CO)C[C@@H]3O[C@H]1C[C@H](N)[C@H](O)[C@H](C)O1 [DOXORUBICIN] | – | – | inhibition at 4 µM [9]: 28%; inhibition at 4 µM [10]: 40.9% |
| CN(C)CC(=O)Nc1ccc(/N=C2\SCC(=O)N2Cc2ccco2)cc1 | Active | Active | – |
| N#Cc1ccccc1N1CCN(CC(=O)Nc2ccc(/N=C3\SCC(=O)N3Cc3ccco3)cc2)CC1 | Active | Active | – |
| O=C(CN1CCOCC1)Nc1ccc(/N=C2\SCC(=O)N2Cc2ccco2)cc1 | Active | Active | – |
| CCN(CC)CC(=O)Nc1ccc(/N=C2\SCC(=O)N2Cc2cccs2)cc1 | – | – | IC50 [8]: 12.5 µM; Activity [3]: Non-Toxic; IC50 [4]: 7 µM; Activity [5]: Active; Activity [6]: Active; Activity [7]: Active |
| O=C(CN1CCOCC1)Nc1ccc(/N=C2\SCC(=O)N2Cc2cccs2)cc1 | – | – | IC50 [8]: 12.6 µM |
| O=C(CN1CCCCC1)Nc1ccc(/N=C2\SCC(=O)N2Cc2cccs2)cc1 | Active | Active | – |
| CCNCC(=O)Nc1ccc(/N=C2\SCC(=O)N2Cc2cccs2)cc1 | – | – | IC50 [8]: 12.6 µM; IC50 [4]: 11.6 µM; Activity [11]: Active |
| CCN(CC)CC(=O)Nc1ccc(/N=C2\SCC(=O)N2Cc2ccco2)cc1 | Active | Active | – |
| CN1CCN(CC(=O)Nc2ccc(/N=C3\SCC(=O)N3Cc3cccs3)cc2)CC1 | Active | Active | – |
| CCCNCC(=O)Nc1ccc(/N=C2\SCC(=O)N2Cc2cccs2)cc1 | – | – | Activity [12]: Non-Toxic; Activity [13]: Active; Activity [14]: Active; IC50 [4]: 3.4 µM; Activity [15]: Active; Activity [5]: Active; Activity [16]: Toxic |
| O=C(CN1CCN(c2ccccn2)CC1)Nc1ccc(/N=C2\SCC(=O)N2Cc2cccs2)cc1 | Active | Active | – |
